Test results: BigSolDB 2.1

Cc1ccc2cc(Br)ccc2n1
solubility (mole fraction)
Conditions	in DMF	in acetone	in acetonitrile	in ethanol	in ethyl acetate	in isopropanol	in methanol	in n-propanol	in toluene	in water
278.15 K	0.00585	0.00678	0.00648	0.000938	0.0072	0.00191	0.000232	0.00218	0.00817	6.88e-06
283.15 K	0.00675	0.00793	0.00743	0.00112	0.00844	0.00229	0.000276	0.00261	0.00953	8.1e-06
288.15 K	0.00765	0.00926	0.00855	0.00131	0.0101	0.00274	0.000319	0.00317	0.0111	9.62e-06
293.15 K	0.00869	0.0108	0.00974	0.00151	0.0117	0.0032	0.000372	0.00371	0.0132	1.13e-05
298.15 K	0.00994	0.0126	0.0112	0.00179	0.0136	0.00375	0.000444	0.00438	0.0155	1.33e-05
303.15 K	0.0116	0.0149	0.0131	0.00213	0.0159	0.00442	0.000525	0.00513	0.018	1.54e-05
308.15 K	0.0137	0.0175	0.0154	0.00249	0.0187	0.00518	0.000613	0.00593	0.0212	1.82e-05
313.15 K	0.0161	0.0204	0.0182	0.00289	0.0218	0.00608	0.000719	0.00687	0.0248	2.13e-05
318.15 K	0.0188	0.0237	0.0213	0.00334	0.0255	0.00703	0.000849	0.0079	0.0286	2.48e-05
323.15 K	0.0222	0.0276	0.0253	0.0039	0.0299	0.00812	0.000998	0.00914	0.0332	2.89e-05
